Measurements: patent US20160089371A1, “Combination of Kinase Inhibitors and Uses Thereof” (INTELLIKINE, LLC, priority 2013, published 2016)
Values joined by “and” are separate entries in the source; they are usually repeats but may differ in a detail not shown here. Equal entries are not always repeated.

Experiments:
[1] = tested on: Akt and S6 phosphorylation; test: Western blot of PI3K pathway phosphorylation (Akt, S6) in cancer cells; type: cell-based
MDA-MB-361 xenografts = test: Antitumor activity and tumor regrowth, MDA-MB-361 xenografts (Example 42); type: in vivo, Mus musculus
Experimental: (room temperature), shielded from light. The test article Compound A was prepared in 5% NMP+95% PEG400 every 5 to 7 days and stored at approximately 25° C. (room temperature), shielded from light. The control article used in this study was 5% NMP+95% PEG400. Compounds were completely dissolved in NMP by sonication, followed by the addition of an appropriate volume of PEG400, and the final solution was vortexed and sonicated to ensure thorough mixing.
Low-passage MDA-MB-361 cells were grown in Eagle's Minimal Essential Medium (EMEM) media supplemented with 20% fetal bovine serum (FBS) and 1× penicillin/streptomycin (Invitrogen, Carlsbad, Calif., USA) until approximately 80% confluency was reached. Before injection, the cells were detached with GIBCO® trypsin (Invitrogen), washed twice with phosphate-buffered saline (PBS), and resuspended in Roswell Park Memorial Institute (RPMI) media (Invitrogen) without supplements. Cells were resuspended to a final concentration of 5×10^7 cells/mL in RPMI media without supplements. […]
Female 5 to 6-week old female (athymic nu/nu) nude mice were inoculated SC in the flank with 5.0×10^6 MDA-MB-361 cells. Tumor growth was monitored with vernier calipers. The MTV was calculated using the formula V=W^2×L÷2. […] Tumor growth and body weight were measured twice weekly. Percent TGI and body weight change were calculated on Day 29. […] The remaining mice continued on study until Day 65, and tumor size and body weight in these mice were measured every 9 to 11 days.
Antitumor activity was determined by calculating the percent TGI using Equation 1: Percent TGI)=(MTV of the control group−MTV of a treated group)÷MTV of the control group×100
Tumor growth delay was determined by calculating the time until MTV in a given treatment group reached 1000 mm^3 versus the time until MTV in the control group reached 1000 mm^3.
The differences in trends of tumor growth over time between pairs of treatment groups were assessed using linear mixed-effects regression models. These models account for the fact that each animal was measured at multiple time points. […]

[2] = tested on: tumor cells harboring PI3K α mutations; test: Proliferation of tumor cells with or without PI3K α mutations; type: cell-based; details: FIG. 13
[3] = tested on: PI3K pathway in MDA-MB-361, MDA-MB-453 and SK-Br3 cells; test: PI3K pathway Western blot in cell lines with elevated PI3Kα activity; type: cell-based, human; details: 2 h treatment; MDA-MB-361, MDA-MB-453, SK-Br3
Experimental: Cells comprising one or more mutations in PI3Kα, including but not limited to breast cancer cells (e.g., MDA-MB-361, T47D, SKOV-3), and cells comprising one or more mutations in PTEN including but not limited to prostate cancer cells (e.g., PC3), are typically grown in cell growth media such as DMEM supplemented with fetal bovine serum and/or antibiotics, and grown to confluency. Cells are then treated with various concentrations of test compound for about 2 hours and subsequently lysed in cell lysis buffer. Lysates are subjected to SDS-PAGE followed by Western blot analysis to detect downstream signaling markers, including but not limited to pAKT(S473), pAKT(T308), pS6, and p4E-BP1.
MDA-MB-361(PIK3CA-E545K), MDA-MB-453 (PIK3CA-H1047R), and SK-Br3 (Her2) cells were treated with various concentrations of Compound A for 2 h and subsequently lysed. Lysates were subjected to SDS-PAGE followed by Western blot analysis as described above to detect downstream pathway markers.

Nc1nc2cc(-c3ccc4ncc(C(=O)N5CCOCC5)n4c3)ccc2o1 [Compound A]
inhibition of Akt phosphorylation at serine 473 ([1]; FIG. 12A): inhibition of Akt phosphorylation at serine 473
inhibition of the PI3K pathway in cell lines with elevated PI3K α activity ([1]; MDA-MB-361, MDA-MB-453, SKBr3 breast cancer cells, FIG. 11): inhibition of the PI3K pathway
%TGI (Day 29) (MDA-MB-361 xenografts; Compound B 0.3 mg/kg, Compound A 60 mg/kg, alone or combined, PO QD 30 days, Day 29): 77.4%
MTV on Day 29 (MDA-MB-361 xenografts; Compound B 0.3 mg/kg, Compound A 60 mg/kg, alone or combined, PO QD, n = 8): 165 mm^3 and 165 ± 105.8 mm^3
%TGI (Day 65) (MDA-MB-361 xenografts; based on the control group (n = 4) on Day 65): 69.5%
inhibition of proliferation of tumor cells [2]: preferentially inhibits proliferation
inhibition of the PI3K pathway (Western blot, FIG. 11) [3]: inhibition of the PI3K pathway
